Columns and labels:
[1] = tested on: p21^WAF1 protein in MCF-7 cells; assay: Induction of p21^WAF1 protein in MCF-7 cells (immunoblotting); assay type: cell-based, human
Description: (a) DO-1, DO-2 and 1801 monoclonal antibodies recognise the N-terminal region of p53 protein, monoclonal antibodies DO-11 and DO-12 recognise different epitopes in the core domain of p53 protein, monoclonal antibodies Bp53-10 and Pab421 recognise the C-terminal region of p53 protein. (b) Monoclonal antibody 118 recognises p21^WAF1.
For direct immunoblotting, total cellular protein lysates were prepared by harvesting cells in hot Laemmli electrophoresis sample buffer. Proteins were then separated by SDS-polyacrylamide gel electrophoresis (SDS-PAGE) on 10% gel and transferred onto a nitrocellulose membrane in Bio.Rad Mini Trans-Blott Electrophoretic Transfer Cell for 2 hrs at 4° C. applying 150 mA in transfer buffer ([…], 190 mM glycine and 20% methanol). Prestained molecular weight markers (Bio-Rad) were run in parallel. The blotted membranes were blocked in 5% milk and 0.1% Tween 20 in PBS for 2 hrs and probed overnight with monoclonal antibodies. After washing 3 times in PBS plus 0.1% Tween 20, peroxidase conjugated rabbit anti-mouse immunoglobulin antiserum (Dako, Denmark) diluted 1:1000 was used as the secondary antibody. To visualise peroxidase activity, ECL reagents from […] were used according to the manufacturer instructions.
MCF7-DDp53 cell line was derived from MCF-7 parental cell line by stable […] with plasmid pCMVneonDDp53 coding for dominant negative truncated mouse p53 protein including amino acid residues 1-14 and 302-390 under the control of at the CMV promoter. The control cell line MCF-7neo was derived by transfecting MCF-7 cells with pCMVneo vector. Transfections were performed using the Effectene transfection reagent (QIAGEN, Germany) as recommended by the supplier. Stable transfectants were selected at 2 mg/ml G418 sulphate (Life Technologies). The expression of Ddp53 miniprotein in MCF-7Ddp53 cell line has been examined by immunoblotting with Bp53-10 monoclonal antibody. Independently isolated MCF-7Dp53 clones 9, 12 and 14 expressing high levels of Ddp53 miniprotein and MCF-7-neo clones 3, 4 and 7 were used. […]

[2] = tested on: P388D1 leukemia transplanted intraperitoneally; assay: In vivo anticancer activity, survival model of P388D1 leukemia; settings: DBA-2 mice, orally twice daily 250 mg/kg, Days 1-3 and 7-9
Description: DBA-2 mice were used as a host. One day following the leukemia transplantation, treatment with 105 was initiated. […] Survival analysis of treated animals (10 mice/group) was preformed in comparison with vehicle treated mice using Kaplan-Meier method and the significance was evaluated by the log-rank test. Body weight of experimental animals was evaluated in parallel in order to reflect toxicity and efficacy of therapy. Comparative analysis of body weight was performed using […].

[3] = tested on: IV; assay type: cell-based, Influenza Virus H1N1 strain A/PR/8/34; settings: MDCK cells
[4] = In vitro cytotoxic activity (Calcein AM, 72 hours), BJ; settings: human, BJ normal fibroblasts
[5] = tested on: human osteogenic sarcoma HOS; assay: In vitro cytotoxic activity (Calcein AM, 72 hours), HOS; settings: read-out: Cytotoxicity IC50 HOS
[6] = tested on: human erythroleukaemia K562; assay: In vitro cytotoxic activity (Calcein AM, 72 hours), K562; settings: K562, 72 h, read-out: Cytotoxicity IC50 K-562
[7] = tested on: human malignant melanoma G 361; assay: In vitro cytotoxic activity (Calcein AM, 72 hours), G 361; settings: G-361, 72 h, read-out: Cytotoxicity IC50 G361

CCC(CO)Nc1nc(NCc2ccccc2N)c2ncn(C(C)C)c2n1 (centres unmarked) [Compound 105, 2-({6-[(2-aminobenzyl)amino]-9-isopropyl-9H-purin-2-yl}amino)butan-1-ol]
p21^WAF1 level ([1]; MCF7 cells treated for 24 h, immunoblot (FIG. 2)): Induction
p21^WAF1 induction ([1]; MCF-7Ddp53 clones (dominant-negative Ddp53 miniprotein)): no p21^WAF1 induction
time at which enhanced level of p21^WAF1 protein was observed ([1]; MCF-7 cells): 12 h
body weight of treated animals [2]: reducing body weight
mean survival time [2]: 15.4 days
survival analysis (Kaplan-Meier, log-rank) ([2]; P=0.0409 versus vehicle): significantly better survival
inhibition of virus replication (in words) [3]: ineffective
IC50 at 72 h [4]: > 167 µM
IC50 [5]: 11 µM
IC50 [6]: 12.8 µM
IC50 [7]: 8 µM

From patent US9023857B2, “Substituted 6-(2-aminobenzylamino)purine derivatives, their use as medicaments and preparations containing these compounds” (Univerzita Palackeho V Olomouci, priority 2009, dated 2015)
